Tests used:
[1] = tested on: PV 5′ UTR RNA; type: binding, poliovirus
[2] = tested on: IRES initiated translation; settings: cited from earlier work

With AALEAKICHQIEYYQGDQ [Peptide 771] the “binding to PV 5′ UTR RNA relative to wild-type La antigen” value [1] was “dramatically reduced binding”.
For AALEAKICHQIEYYFGDF [LAP], the “inhibition of IRES initiated translation” value [2] is listed as “inhibit this translation”.
In the case of AALEAKICHQIEQQFGDF [Peptide 772], the “binding to PV 5′ UTR RNA relative to wild-type La antigen” value [1] is reported as “dramatically reduced binding”.
